# In patent publication US20130022649A1, “SNALP FORMULATIONS CONTAINING ANTIOXIDANTS” (Protiva Biotherapeutics, Inc., priority 2009, published 2013):
# Experiment: Lipid content and purity by reverse phase HPLC (Example 3 Study 3)
# Type: physicochemical
# Details: in 20 mM citrate 1:57 SNALP formulation
# Procedure: Samples were removed after 2 weeks of storage at room temperature (RT) or 40° C. (accelerated conditions). Samples were analyzed for particle size, encapsulation efficiency, lipid content and purity, and siRNA content and purity. Particle size measurements were obtained using a Malvern Zetasizer instrument and encapsulation efficiency was determined using a RiboGreen fluorometric assay. Lipid content and purity were analyzed by reverse phase HPLC. siRNA content and purity were analyzed by denaturing anion-exchange HPLC (DENAX).
# Reverse phase HPLC analysis was performed to assess the level of lipid degradation. The results are shown Tables 23-25. […] The formulations containing EDTA or EDTA combined with additional antioxidants had no significant change in lipid content at either storage temperature. The same trends in lipid stability were observed regardless of which cationic lipid was present in the formulation.
structure (smiles),measurement,setting,value
"CCCCC/C=C\C/C=C\CCCCCCCCC(CCCCCCCC/C=C\C/C=C\CCCCC)OCCCCN(C)C [MC4 Ether, 4-((6Z,9Z,28Z,31Z)-heptatriaconta-6,9,28,31-tetraen-19-yloxy)-N,N-dimethylbutan-1-amine]",cationic lipid content before the drop,,about 58 mol %
same,cationic lipid content after storage,2 weeks at 40° C.,about 52 mol %
